The target of data set [1] is T1, Citron Rho-interacting kinase (Homo sapiens, UniProt O14578).
Data set [2] concerns the target T1, Citron Rho-interacting kinase. The data set can be described thus: Binding affinity to NanoLuc fused-CITK (unknown origin) expressed in HEK293T cells assessed as dissociation constant NanoBRET Target Engagement Intracellular Kinase Assay. In kind it is cell-based.
Data set [3] shares this target. Description: Binding affinity to NanoLuc fused-CITK kinase domain (unknown origin) expressed in HEK293T cells assessed as dissociation constant NanoBRET Target Engagement Intracellular Kinase Assay. Format: cell-based.
The test system of another data set is JVM-3. The data set can be described thus: Antiproliferative activity against human JVM-3 cells assessed as cell viability by standard PRISM assay. Format: functional, cell-based.
Data set [4] in a line: Half life in Sprague-Dawley rat at 1 mg/kg, iv measured upto 24 hrs. Conditions: in vivo. Format: ADME, organism-based.
The next data set concerns the target CYP3A4 (Homo sapiens, UniProt P08684). Description: Inhibition of CYP3A4 (unknown origin) at 10 uM by LC/MS/MS analysis relative to control. Format: ADME.
A short description of data set [5]: Apparent permeability across apical to basolateral side in dog MDCK cells incubated for 1 hr by LCMS analysis. In kind it is ADME, cell-based, Canis lupus familiaris.
Data set [6] in a line: Cmax in Sprague-Dawley rat at 1 mg/kg, iv measured upto 24 hrs. In kind it is ADME, organism-based. Conditions: in vivo.
Another data set has as its system COLO 205. Description: Antiproliferative activity against human COLO 205 Panel cells assessed as cell viability incubated for 48 hrs by CellTiter-Glo cell viability assay. Format: functional.
A short description of data set [7]: Cmax in Sprague-Dawley rat at 10 mg/kg, po measured upto 24 hrs. Conditions: in vivo. In kind it is ADME, organism-based.
The subject of another data set is Hs-578T. The data set can be described thus: Antiproliferative activity against human Hs-578T cells assessed as cell viability incubated for 48 hrs by CellTiter-Glo cell viability assay. Format: functional. In general terms: In ATP-based viability assays light output follows the ATP content of the culture.
Data set [8] relates to Panel NCI-60 (60 carcinoma cell lines). Description: Antiproliferative activity against human Panel NCI-60 (60 carcinoma cell lines) assessed as cell viability incubated for 48 hrs by CellTiter-Glo cell viability assay. Format: functional.
A short description of data set [9]: AUC in CD-1 disease model mouse brain at 30 mg/kg, po measured after 24 hrs. In kind it is ADME, organism-based. Conditions: CD-1, mouse.
The target of a further data set is CYP2D6 (Homo sapiens, UniProt P10635). Description: Inhibition of CYP2D6 (unknown origin) at 10 uM by LC/MS/MS analysis relative to control. In kind it is ADME.
A short description of data set [10]: Cmax in CD-1 disease model mouse brain at 30 mg/kg, po measured after 24 hrs. In kind it is ADME, organism-based. Conditions: CD-1, mouse.
Data set [11] is described as follows: Oral bioavailability in Sprague-Dawley rat at 10 mg/kg measured upto 24 hrs. In kind it is ADME, organism-based. Conditions: in vivo.
A short description of data set [12]: Unbound fraction in human plasma measured after 4.5 hrs by LC-MS/MS analysis. Format: ADME, cell-free.
Data set [13] can be described thus: Cmax in CD-1 disease model mouse plasma at 30 mg/kg, po measured after 24 hrs. Conditions: CD-1, mouse. In kind it is ADME, organism-based.
The nature of data set [14]: AUC in CD-1 disease model mouse plasma at 30 mg/kg, po measured after 24 hrs. In kind it is ADME, organism-based. Conditions: CD-1, mouse.
Data set [15] in a line: AUC in Sprague-Dawley rat at 1 mg/kg, iv measured upto 24 hrs. Format: ADME, organism-based. Conditions: in vivo.
Data set [16] can be described thus: Plasma clearance in Sprague-Dawley rat at 1 mg/kg, iv measured upto 24 hrs. Format: ADME, organism-based.
For the next data set, the target named is CYP2C9 (Homo sapiens, UniProt P11712). The data set can be described thus: Inhibition of CYP2C9 (unknown origin) at 10 uM by LC/MS/MS analysis relative to control. Format: ADME.
A short description of data set [17]: Volume of distribution at steady state in Sprague-Dawley rat at 1 mg/kg, iv measured upto 24 hrs. In kind it is ADME, organism-based. Conditions: in vivo, read-out: Vdss.
Another data set relates to 786-0. The data set can be described thus: Antiproliferative activity against human 786-0 Panel cells assessed as cell viability incubated for 48 hrs by CellTiter-Glo cell viability assay. Format: functional.
Data set [18] in a line: Half life in Sprague-Dawley rat at 10 mg/kg, po measured upto 24 hrs. In kind it is ADME, organism-based. Conditions: in vivo.
The nature of data set [19]: AUC in Sprague-Dawley rat at 10 mg/kg, po measured upto 24 hrs. Format: ADME, organism-based. Conditions: in vivo.
Data set [20] can be described thus: Unbound fraction in rat plasma measured after 4.5 hrs by LC-MS/MS analysis. Format: ADME, cell-free.

Structures are written as SMILES. pIC50: −log10 of the molar value.

T1 sequence (O14578 whole entry, the tested form may be a part): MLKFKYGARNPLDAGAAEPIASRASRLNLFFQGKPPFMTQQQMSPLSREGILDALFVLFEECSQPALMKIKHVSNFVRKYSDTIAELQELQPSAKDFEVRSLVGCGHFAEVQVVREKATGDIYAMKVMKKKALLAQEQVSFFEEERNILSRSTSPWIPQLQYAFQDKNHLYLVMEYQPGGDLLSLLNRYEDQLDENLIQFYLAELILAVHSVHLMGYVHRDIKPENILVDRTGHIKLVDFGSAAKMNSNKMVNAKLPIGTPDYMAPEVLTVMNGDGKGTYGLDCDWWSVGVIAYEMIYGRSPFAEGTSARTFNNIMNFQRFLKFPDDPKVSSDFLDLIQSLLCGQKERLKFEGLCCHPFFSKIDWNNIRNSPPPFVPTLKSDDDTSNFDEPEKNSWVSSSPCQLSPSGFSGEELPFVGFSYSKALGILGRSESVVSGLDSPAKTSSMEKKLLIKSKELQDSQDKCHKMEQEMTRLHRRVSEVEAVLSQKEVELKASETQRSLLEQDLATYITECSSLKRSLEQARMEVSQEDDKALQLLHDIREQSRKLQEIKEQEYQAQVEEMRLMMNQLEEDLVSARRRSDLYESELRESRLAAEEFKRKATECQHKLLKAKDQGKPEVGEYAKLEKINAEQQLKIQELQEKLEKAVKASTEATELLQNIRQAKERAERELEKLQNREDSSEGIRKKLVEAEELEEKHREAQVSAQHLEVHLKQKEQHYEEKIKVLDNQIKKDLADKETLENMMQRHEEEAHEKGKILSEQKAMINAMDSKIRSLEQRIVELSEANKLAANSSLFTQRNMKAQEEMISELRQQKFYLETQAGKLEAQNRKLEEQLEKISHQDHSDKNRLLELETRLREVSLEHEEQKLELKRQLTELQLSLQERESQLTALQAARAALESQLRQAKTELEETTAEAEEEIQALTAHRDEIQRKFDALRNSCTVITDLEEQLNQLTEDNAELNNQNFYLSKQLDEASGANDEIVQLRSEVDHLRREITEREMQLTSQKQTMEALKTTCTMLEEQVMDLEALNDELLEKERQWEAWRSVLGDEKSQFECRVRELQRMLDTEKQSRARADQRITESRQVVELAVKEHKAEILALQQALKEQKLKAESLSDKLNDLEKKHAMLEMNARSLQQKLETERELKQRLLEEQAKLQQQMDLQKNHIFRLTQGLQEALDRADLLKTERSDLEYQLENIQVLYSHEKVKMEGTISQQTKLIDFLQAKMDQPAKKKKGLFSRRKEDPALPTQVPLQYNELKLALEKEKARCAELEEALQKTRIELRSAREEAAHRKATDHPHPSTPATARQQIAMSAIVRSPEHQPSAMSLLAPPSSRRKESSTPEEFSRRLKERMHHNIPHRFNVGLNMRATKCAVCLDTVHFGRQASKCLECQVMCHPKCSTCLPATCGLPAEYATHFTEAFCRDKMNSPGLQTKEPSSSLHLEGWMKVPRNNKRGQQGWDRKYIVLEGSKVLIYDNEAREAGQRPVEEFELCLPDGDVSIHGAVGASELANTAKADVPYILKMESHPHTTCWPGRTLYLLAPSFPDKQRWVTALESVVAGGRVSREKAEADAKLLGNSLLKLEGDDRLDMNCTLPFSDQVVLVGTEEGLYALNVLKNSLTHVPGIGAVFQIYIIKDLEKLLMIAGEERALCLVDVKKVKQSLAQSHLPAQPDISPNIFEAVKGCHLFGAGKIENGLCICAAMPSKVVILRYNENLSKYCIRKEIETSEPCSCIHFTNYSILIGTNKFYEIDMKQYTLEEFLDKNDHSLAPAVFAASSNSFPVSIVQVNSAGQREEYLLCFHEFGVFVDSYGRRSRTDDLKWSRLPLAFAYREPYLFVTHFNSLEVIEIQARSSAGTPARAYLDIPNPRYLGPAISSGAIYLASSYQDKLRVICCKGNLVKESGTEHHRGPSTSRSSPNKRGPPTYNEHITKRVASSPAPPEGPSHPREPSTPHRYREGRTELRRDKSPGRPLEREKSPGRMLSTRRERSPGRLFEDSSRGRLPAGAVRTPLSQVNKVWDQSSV
Sequence of CYP3A4 (P08684 whole entry): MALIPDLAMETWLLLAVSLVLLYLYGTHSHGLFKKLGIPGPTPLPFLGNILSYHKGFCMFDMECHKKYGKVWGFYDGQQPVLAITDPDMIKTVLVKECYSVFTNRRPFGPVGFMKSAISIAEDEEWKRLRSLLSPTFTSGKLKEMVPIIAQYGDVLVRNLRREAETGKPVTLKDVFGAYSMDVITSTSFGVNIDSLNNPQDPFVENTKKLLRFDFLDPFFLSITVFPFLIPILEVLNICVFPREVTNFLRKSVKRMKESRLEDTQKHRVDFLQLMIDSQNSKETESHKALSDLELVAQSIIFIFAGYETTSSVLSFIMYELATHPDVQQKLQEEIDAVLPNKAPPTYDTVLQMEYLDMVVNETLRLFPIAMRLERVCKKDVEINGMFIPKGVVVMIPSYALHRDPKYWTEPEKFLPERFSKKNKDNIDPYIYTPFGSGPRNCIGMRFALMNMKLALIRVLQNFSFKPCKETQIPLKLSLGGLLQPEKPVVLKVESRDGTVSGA
Sequence of CYP2C9 (P11712 whole entry): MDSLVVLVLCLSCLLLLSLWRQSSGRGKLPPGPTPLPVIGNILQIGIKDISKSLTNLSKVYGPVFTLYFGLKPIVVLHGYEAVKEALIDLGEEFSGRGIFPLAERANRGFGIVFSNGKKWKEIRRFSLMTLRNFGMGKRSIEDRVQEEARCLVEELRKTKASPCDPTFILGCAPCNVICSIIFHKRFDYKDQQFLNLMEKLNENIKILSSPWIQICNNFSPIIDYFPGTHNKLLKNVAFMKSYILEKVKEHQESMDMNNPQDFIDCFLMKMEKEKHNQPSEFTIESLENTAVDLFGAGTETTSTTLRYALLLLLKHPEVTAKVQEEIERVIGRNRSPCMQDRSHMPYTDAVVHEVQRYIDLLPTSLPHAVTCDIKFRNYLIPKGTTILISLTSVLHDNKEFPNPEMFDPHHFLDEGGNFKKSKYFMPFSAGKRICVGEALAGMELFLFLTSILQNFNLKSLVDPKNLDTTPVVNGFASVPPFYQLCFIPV
Sequence of CYP2D6 (P10635 whole entry): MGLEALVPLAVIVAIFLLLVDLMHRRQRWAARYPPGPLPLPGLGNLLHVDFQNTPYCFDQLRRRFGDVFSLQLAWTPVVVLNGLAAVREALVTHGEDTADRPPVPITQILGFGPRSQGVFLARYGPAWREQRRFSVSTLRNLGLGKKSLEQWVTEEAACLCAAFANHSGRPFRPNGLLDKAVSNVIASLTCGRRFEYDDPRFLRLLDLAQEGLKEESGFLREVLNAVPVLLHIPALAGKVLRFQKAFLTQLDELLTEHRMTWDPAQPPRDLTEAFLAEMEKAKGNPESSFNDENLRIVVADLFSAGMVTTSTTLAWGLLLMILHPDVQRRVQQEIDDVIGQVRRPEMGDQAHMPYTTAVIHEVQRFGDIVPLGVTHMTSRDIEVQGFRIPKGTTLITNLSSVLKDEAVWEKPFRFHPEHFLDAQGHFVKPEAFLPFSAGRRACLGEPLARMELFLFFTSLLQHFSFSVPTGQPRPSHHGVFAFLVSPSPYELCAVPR

`CC(N)c1ccc(-c2ccnc3[nH]ccc23)cc1` (centres undefined): the pIC50 (usually −log10 of the IC50, conventionally taken in molar units) in data set [1] was 6.30.

For `CC(N)C(=O)Nc1ccc(-c2ccnc3[nH]ccc23)cc1` (centres undefined), the negative logarithm of the IC50 (pIC50) in [1] was 6.60.

The compound `Cc1cc2c(-c3ccc(NC(=O)[C@@H](N)[C@H](O)C(C)C)cc3C)ccnc2[nH]1` gave a pIC50 in data set [1] of 7.80.

In data set [1], `CC(C)C[C@H](N)C(=O)Nc1ccc(-c2ccnc3[nH]ccc23)cc1` showed a pIC50 of 7.38.

As for `C[C@@H](N)c1ccc(C(=O)Nc2ccnc3[nH]ccc23)cc1` [Y-39983], the negative-log IC50 (pIC50) in data set [1] is 6.82.

Compound `CC(C)CC(CN)C(=O)Nc1ccc(-c2ccnc3[nH]ccc23)cc1` (centres undefined) showed a pIC50 in data set [1] of 6.39.

For `Cc1cc2c(-c3ccc(NC(=O)[C@H](N)CC(C)(C)C)cc3C)cncc2[nH]1`, the pIC50 in [1] was under 4.52. In addition, the Kd entry in data set [2] and in data set [3] was “Not Active” in each case.

For the compound `Cc1cc2c(-c3ccc(NC(=O)[C@H](N)[C@@H](O)C(C)C)cc3C)ccnc2[nH]1`, the pIC50 in data set [1] was 8.26; in the data set with JVM-3, 5.36.

`Cc1cc2c(-c3ccc(NC(=O)[C@H](N)CC(C)(C)C)cc3C)ccnc2[nH]1`: the half-life (in general, the time needed for the level to fall by half in the phase considered) was 4.3 h in [4] and 4 h in [18]. The inhibition (usually the drop in the measured response relative to a control, in per cent) at 10 µM is 28.3% on CYP3A4, 56.2% against CYP2D6 and 6.7% on CYP2C9. The Papp A→B (in general, the apparent permeability from the apical to the basolateral side of a cell layer) at 1 h in [5] was 21.3 ×10⁻⁶ cm/s. Moreover, the Cmax (usually the highest concentration seen after dosing) in data set [6] is 5.8 µM; in [7], 12.3 µM; in data set [10], 1.02 µM; in data set [13], 12.9 µM. The GI50 (commonly the concentration at which growth is held to half of that of the control) was under 2000 nM in the data set with COLO 205, under 2000 nM in the data set on Hs-578T, 7000 nM in [8] and under 2000 nM with 786-0. Further, the AUC (as a rule, the area under the concentration-time curve, a measure of exposure) at 24 h in data set [9] turned out to be 7.71 µM·h; in data set [14] it was 90.5 µM·h. Moreover, the F in data set [11] stood at 72%. For the same compound, the Fu is 0.52% in [12] and 0.26% in data set [20]. Also, the AUC amounted to 10.2 µM·h in data set [15] and 7.3 µM·h in [19]. In addition, the clearance (commonly the volume of plasma or blood freed of the substance per unit of time) in data set [16] was 4.4 mL/min/kg. Also, the Vd in data set [17] worked out at 0.91 L/kg.

(Values after ChEMBL document CHEMBL5537207, “Discovery and Characterization of Selective, First-in-Class Inhibitors of Citron Kinase” (J Med Chem, 2024).)
